This passage reports IC50, EC50 and CC50 results from patent US9586986B2, “Substituted 7-deazapurine ribonucleosides for therapeutic uses” (Institute of Organic Chemistry and Biochemistry ASCR, v.v.i., priority 2014, dated 2017).

Molecules are shown by their SMILES. pEC50, pIC50: −log10 of the molar value. Where only a bound is given, the exact number is not on record here.

As a reminder, the pIC50 is −log10 of the IC50, conventionally taken in molar units. In general, pEC50 refers to −log10 of the EC50, conventionally taken in molar units. Broadly, the CC50 is the concentration at which the toxic effect on the cells reaches its halfway point. A higher CC50 goes with better tolerance by the cells.

Holding throughout (type): cell-based
Data set [1] relates to CEM-DNR-bulk. The data set can be described thus: Cytostatic/cytotoxic MTT assay, CEM-DNR-bulk. Conditions: Homo sapiens; daunorubicin resistant subline, 72 h; read-out: MTT, IC50 CEM-DNR-bulk. The method in brief: (§1)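 Human cancer lines, including daunorubicin-resistant CEM-DNR (mrp-1/mdr-1 overexpressing) and paclitaxel-resistant K562-TAX (mdr-1), seeded 25,000-30,000 cells/well, pre-incubated 24 h, then treated in duplicate with four-fold dilutions for 72 h at 37° C, 5% CO2. MTT read-out at 540 nm; IC50 from dose-response curves.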
(Tetrazolium assays rely on reduction of a dye to a coloured formazan, in cell work by metabolically active cells.)

Data set [2] has as its system HCT116. The data set can be described thus: Cytostatic/cytotoxic MTT assay, HCT116. To be noted: Homo sapiens, HCT-116; 72 h incubation; read-out: MTT, IC50 HCT116. The gist of the method: as §1
Data set [3] concerns HepG2. The data set can be described thus: XTT cytotoxicity assay, HepG2. Conditions: Homo sapiens, HepG2; 72 h incubation; read-out: XTT, IC50 HepG2. The method in brief: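 HepG2 cells seeded at 10,000/well, compounds added after 24 h and incubated 72 h at 37 °C, 5% CO2. Viability by XTT reduction (1 mg/mL XTT plus electron coupler), absorbance at 495 nm after 2 h; IC50 by non-linear regression.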

The test system of data set [4] is HeLa S3. The data set can be described thus: XTT cytotoxicity assay, HeLa S3. Conditions: Homo sapiens, HeLa S3; 72 h incubation; read-out: XTT, IC50 HeLa S3. The gist of the method: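 Cells seeded at 10,000 per well, compounds added after 24 h and incubated 72 h, then XTT (with N-methyl dibenzopyrazine methyl sulfate) for 2 h; absorbance at 495 nm. IC50 by non-linear regression.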

Data set [5] concerns HCV subtype 1B replicon in Huh-7 cells. The data set can be described thus: HCV sub-genomic reporter replicon assay, subtype 1B. To be noted: Hepatitis C virus; Huh-7 cells, HCV subtype 1B replicon; read-out: Replicon 1B EC50. The method, then: (§2) Compounds were also tested in Huh-7 cells harboring sub-genomic reporter replicons derived from HCV subtypes 1B and 2A (ref.: Stuyver, L. J.; Whitaker, T.; McBrayer, T. R.; Hernandez-Santiago, B. I.; Lostia, S.; Tharnish, P. M.; Ramesh, M.; Chu, C. K.; Jordan, R.; Shi, J. X.; Rachakonda, S.; Watanabe, K. A.; Otto, M. J.; Schinazi, R. F. Antimicrob. Agents Chemother. 2003, 47, 244-254).

In data set [6] the test system is Huh-7 cells harboring replicon 1B. The data set can be described thus: Cytotoxicity in replicon 1B cells. Conditions: HCV subtype 1B replicon. Here is the method:
as §2
(A replicon is a self-replicating genome or part of one, used to study replication in cells.)

Regarding `CN(C)c1ncnc2c1c(-c1ccoc1)cn2[C@@H]1O[C@H](CO)[C@@H](O)[C@H]1O` [Compound 4b, 4-Dimethylamino-5-(furan-3-yl)-7-(β-D-ribofuranosyl)-7H-pyrrolo[2,3-d]pyrimidine], the pIC50 in data set [1] was less than 4.70; in data set [2], less than 4.70; in data set [3], 4.90; in data set [4] it was 5.04. Also, the pEC50 in data set [5] was 5.10. For the same compound, the CC50 in data set [6] is more than 44 µM.
As to `CN(C)c1ncnc2c1c(-c1cccs1)cn2[C@@H]1O[C@H](CO)[C@@H](O)[C@H]1O` [Compound 4c, 4-Dimethylamino-7-(β-D-ribofuranosyl)-5-(thiophen-2-yl)-7H-pyrrolo[2,3-d]pyrimidine], the pIC50 in data set [1], in data set [2], in data set [3] and in data set [4] was less than 4.70 each time. Further, the pEC50 in data set [5] was 4.78. In data set [6], this compound gave a cytotoxic concentration (CC50) of more than 44 µM.
With `CN(C)c1ncnc2c1c(-c1ccsc1)cn2[C@@H]1O[C@H](CO)[C@@H](O)[C@H]1O` [Compound 4d, 4-Dimethylamino-7-(β-D-ribofuranosyl)-5-(thiophen-3-yl)-7H-pyrrolo[2,3-d]pyrimidine], the negative logarithm of the IC50 (pIC50) in data set [1] was less than 4.70; in data set [2], less than 4.70; in data set [3], less than 4.70; in data set [4], less than 4.82. Moreover, in data set [5], the pEC50 is 4.42. For the same compound, the CC50 in data set [6] is more than 44 µM.
As for `CN(C)c1ncnc2c1c(-c1ccccc1)cn2[C@@H]1O[C@H](CO)[C@@H](O)[C@H]1O` [Compound 4e, 4-Dimethylamino-5-phenyl-7-(β-D-ribofuranosyl)-7H-pyrrolo[2,3-d]pyrimidine], the pIC50 in data set [1], in data set [2], in data set [3] and in data set [4] was less than 4.70 throughout. In addition, in data set [5], the pEC50 is 4.57. In data set [6], this compound had a half-maximal cytotoxic concentration (CC50) of more than 44 µM.
For the compound `CN(C)c1ncnc2c1c(-c1cc3ccccc3o1)cn2[C@@H]1O[C@H](CO)[C@@H](O)[C@H]1O` [Compound 4f, 5-(Benzofuran-2-yl)-4-dimethylamino-7-(β-D-ribofuranosyl)-7H-pyrrolo[2,3-d]pyrimidine], the pIC50 in data set [1], in data set [2], in data set [3] and in data set [4] was less than 4.70 throughout. Moreover, the pEC50 in data set [5] is 4.72. In addition, the 50% cytotoxic concentration (CC50) in data set [6] was more than 44 µM.
For `C#Cc1cn([C@@H]2O[C@H](CO)[C@@H](O)[C@H]2O)c2ncnc(N(C)C)c12` [Compound 4g, 4-Dimethylamino-5-ethynyl-7-(β-D-ribofuranosyl)-7H-pyrrolo[2,3-d]pyrimidine], the negative-log IC50 (pIC50) in data set [1] was 6.62; in data set [2], 6.74; in data set [3] it was 5.88; in data set [4], 6.09. The negative logarithm of the EC50 (pEC50) in data set [5] is 7.15. In addition, the half-maximal cytotoxic concentration (CC50) in data set [6] is more than 44 µM.
Turning to `CN(C)c1ncnc2c1c(I)cn2[C@@H]1O[C@H](CO)[C@@H](O)[C@H]1O` [Compound 4h, 4-Dimethylamino-5-iodo-7-(β-D-ribofuranosyl)-7H-pyrrolo[2,3-d]pyrimidine], the negative logarithm of the IC50 (pIC50) is 7.00 in data set [1], 7.05 in data set [2], 4.86 in data set [3] and 6.72 in data set [4]. Further, the negative-log EC50 (pEC50) in data set [5] is 6.16. In data set [6], this compound came in with a half-maximal cytotoxic concentration (CC50) of more than 44 µM.
With `Cc1ncnc2c1c(-c1ccco1)cn2[C@@H]1O[C@H](CO)[C@@H](O)[C@H]1O` [Compound 5a, 5-(Furan-2-yl)-4-methyl-7-(β-D-ribofuranosyl)-7H-pyrrolo[2,3-d]pyrimidine], the negative logarithm of the IC50 (pIC50) in data set [1] is 7.15; in data set [2] it was 7.40; in data set [3], 6.52; in data set [4], 5.88. Also, the pEC50 in data set [5] is 7.15. In data set [6], this compound returned a 50% cytotoxic concentration (CC50) of 6.62 µM.
Consider `Cc1ncnc2c1c(-c1ccoc1)cn2[C@@H]1O[C@H](CO)[C@@H](O)[C@H]1O` [Compound 5b, 5-(Furan-3-yl)-4-methyl-7-(β-D-ribofuranosyl)-7H-pyrrolo[2,3-d]pyrimidine], for which the pIC50 was less than 4.70 in data set [1], less than 4.70 in data set [2], 5.27 in data set [3] and less than 4.70 in data set [4]. Also, the negative-log EC50 (pEC50) in data set [5] is 5.35. Moreover, the cytotoxic concentration (CC50) in data set [6] was more than 44 µM.
